Data reported in the NIST ThermoML archive (doi:10.1021/acs.jced.8b00975).

Test: xn = mol fraction of the nth substance listed
Settings: Liquid, Vibrating tube method

C=C(C)C(=O)OCCN(C)C [2-(dimethylamino)ethyl methylpropenoate] + CCCCCO
mass density [kg/m3]
Settings	100 kPa	5000 kPa	10000 kPa	15000 kPa	20000 kPa	25000 kPa	30000 kPa	35000 kPa
293.15 K, x1 = 0.0299	821.4	824.97	828.31	831.49	834.52	837.46	840.35	843.21
293.15 K, x1 = 0.0601	827.36	830.88	834.21	837.36	840.4	843.36	846.28	849.21
293.15 K, x1 = 0.1006	834.83	838.39	841.73	844.91	847.96	850.92	853.82	856.7
293.15 K, x1 = 0.2011	851.81	855.36	858.7	861.88	864.94	867.91	870.84	873.77
293.15 K, x1 = 0.3004	866.6	870.17	873.54	876.75	879.84	882.84	885.78	888.7
293.15 K, x1 = 0.402	879.66	883.27	886.67	889.9	893.01	896.03	899.02	902
293.15 K, x1 = 0.4518	885.55	889.17	892.6	895.88	899.03	902.08	905.07	908.03
293.15 K, x1 = 0.5004	890.97	894.63	898.09	901.38	904.54	907.61	910.63	913.62
293.15 K, x1 = 0.5486	896.13	899.78	903.24	906.53	909.71	912.79	915.83	918.85
293.15 K, x1 = 0.601	901.42	905.08	908.55	911.86	915.05	918.14	921.18	924.2
293.15 K, x1 = 0.7021	910.74	914.43	917.91	921.22	924.41	927.53	930.63	933.76
293.15 K, x1 = 0.8019	918.94	922.6	926.1	929.46	932.72	935.91	939.06	942.19
293.15 K, x1 = 0.9008	926.27	929.96	933.48	936.87	940.15	943.35	946.5	949.63
293.15 K, x1 = 0.9306	928.32	932.04	935.56	938.93	942.19	945.38	948.54	951.72
293.15 K, x1 = 0.9645	930.63	934.34	937.87	941.25	944.51	947.7	950.84	953.97
303.15 K, x1 = 0.0307	814.24	818.14	821.74	825.07	–	–	–	–
303.15 K, x1 = 0.0604	819.89	823.73	827.29	830.63	–	–	–	–
303.15 K, x1 = 0.1009	827.11	830.9	834.46	837.81	–	–	–	–
303.15 K, x1 = 0.2025	843.87	847.62	851.18	854.56	–	–	–	–
303.15 K, x1 = 0.3	857.94	861.71	865.28	868.68	–	–	–	–
303.15 K, x1 = 0.3999	870.67	874.45	878.06	881.52	–	–	–	–
303.15 K, x1 = 0.4506	876.6	880.36	883.98	887.47	–	–	–	–
303.15 K, x1 = 0.5037	882.4	886.19	889.83	893.35	–	–	–	–
303.15 K, x1 = 0.5495	887.14	890.94	894.58	898.1	–	–	–	–
303.15 K, x1 = 0.6012	892.24	896.07	899.73	903.25	–	–	–	–
303.15 K, x1 = 0.7014	901.28	905.16	908.86	912.4	–	–	–	–
303.15 K, x1 = 0.8023	909.34	913.19	916.92	920.53	–	–	–	–
303.15 K, x1 = 0.9025	916.57	920.44	924.19	927.82	–	–	–	–
303.15 K, x1 = 0.9307	918.44	922.34	926.12	929.8	–	–	–	–
303.15 K, x1 = 0.9625	920.67	924.56	928.32	931.98	–	–	–	–
